Test results published in ChEMBL document CHEMBL4422610, “HDAC as onco target: Reviewing the synthetic approaches with SAR study of their inhibitors” (Eur J Med Chem, 2018).

Experiments:
Histone deacetylase 1 [1] = molecular target: T1, Histone deacetylase 1 (Homo sapiens, UniProt Q13547); assay: Inhibition of human HDAC1 using fluorogenic HDAC substrate
Histone deacetylase 2 = Histone deacetylase 2 (Homo sapiens, UniProt Q92769); assay: Inhibition of human HDAC2 using fluorogenic HDAC substrate
Histone deacetylase 2, sequence (Q92769 whole entry): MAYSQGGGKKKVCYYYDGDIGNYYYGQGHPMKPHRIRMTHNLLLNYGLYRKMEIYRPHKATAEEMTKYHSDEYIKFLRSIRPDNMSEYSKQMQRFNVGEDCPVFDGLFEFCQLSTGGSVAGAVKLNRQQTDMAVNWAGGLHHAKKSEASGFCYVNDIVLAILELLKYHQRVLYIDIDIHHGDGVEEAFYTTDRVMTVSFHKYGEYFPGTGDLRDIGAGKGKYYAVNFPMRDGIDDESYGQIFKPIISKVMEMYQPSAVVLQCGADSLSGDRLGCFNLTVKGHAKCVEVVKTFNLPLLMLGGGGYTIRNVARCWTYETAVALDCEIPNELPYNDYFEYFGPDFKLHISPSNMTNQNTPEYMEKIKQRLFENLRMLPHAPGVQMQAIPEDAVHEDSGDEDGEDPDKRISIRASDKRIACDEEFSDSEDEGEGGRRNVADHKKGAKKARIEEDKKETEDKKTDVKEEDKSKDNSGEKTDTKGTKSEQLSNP

Histone deacetylase 3 [2] = molecular target: T2, Histone deacetylase 3 (Homo sapiens, UniProt O15379); assay: Inhibition of human HDAC3 using fluorogenic HDAC substrate
T2 sequence (O15379 whole entry): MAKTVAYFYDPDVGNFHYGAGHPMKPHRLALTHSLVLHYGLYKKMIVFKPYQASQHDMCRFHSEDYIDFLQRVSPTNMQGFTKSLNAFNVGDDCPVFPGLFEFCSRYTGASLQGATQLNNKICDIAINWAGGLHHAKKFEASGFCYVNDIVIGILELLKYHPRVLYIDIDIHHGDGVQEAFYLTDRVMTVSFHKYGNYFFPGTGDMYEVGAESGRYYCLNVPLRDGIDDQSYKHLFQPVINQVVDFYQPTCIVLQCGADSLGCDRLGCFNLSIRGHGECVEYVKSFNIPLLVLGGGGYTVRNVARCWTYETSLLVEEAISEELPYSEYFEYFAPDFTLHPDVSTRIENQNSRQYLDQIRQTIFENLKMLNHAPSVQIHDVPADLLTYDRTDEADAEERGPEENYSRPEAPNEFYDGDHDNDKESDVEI

Histone deacetylase 4 = Histone deacetylase 4 (Homo sapiens, UniProt P56524); assay: Inhibition of human HDAC4 using fluorogenic HDAC substrate
Histone deacetylase 4, sequence (P56524 whole entry): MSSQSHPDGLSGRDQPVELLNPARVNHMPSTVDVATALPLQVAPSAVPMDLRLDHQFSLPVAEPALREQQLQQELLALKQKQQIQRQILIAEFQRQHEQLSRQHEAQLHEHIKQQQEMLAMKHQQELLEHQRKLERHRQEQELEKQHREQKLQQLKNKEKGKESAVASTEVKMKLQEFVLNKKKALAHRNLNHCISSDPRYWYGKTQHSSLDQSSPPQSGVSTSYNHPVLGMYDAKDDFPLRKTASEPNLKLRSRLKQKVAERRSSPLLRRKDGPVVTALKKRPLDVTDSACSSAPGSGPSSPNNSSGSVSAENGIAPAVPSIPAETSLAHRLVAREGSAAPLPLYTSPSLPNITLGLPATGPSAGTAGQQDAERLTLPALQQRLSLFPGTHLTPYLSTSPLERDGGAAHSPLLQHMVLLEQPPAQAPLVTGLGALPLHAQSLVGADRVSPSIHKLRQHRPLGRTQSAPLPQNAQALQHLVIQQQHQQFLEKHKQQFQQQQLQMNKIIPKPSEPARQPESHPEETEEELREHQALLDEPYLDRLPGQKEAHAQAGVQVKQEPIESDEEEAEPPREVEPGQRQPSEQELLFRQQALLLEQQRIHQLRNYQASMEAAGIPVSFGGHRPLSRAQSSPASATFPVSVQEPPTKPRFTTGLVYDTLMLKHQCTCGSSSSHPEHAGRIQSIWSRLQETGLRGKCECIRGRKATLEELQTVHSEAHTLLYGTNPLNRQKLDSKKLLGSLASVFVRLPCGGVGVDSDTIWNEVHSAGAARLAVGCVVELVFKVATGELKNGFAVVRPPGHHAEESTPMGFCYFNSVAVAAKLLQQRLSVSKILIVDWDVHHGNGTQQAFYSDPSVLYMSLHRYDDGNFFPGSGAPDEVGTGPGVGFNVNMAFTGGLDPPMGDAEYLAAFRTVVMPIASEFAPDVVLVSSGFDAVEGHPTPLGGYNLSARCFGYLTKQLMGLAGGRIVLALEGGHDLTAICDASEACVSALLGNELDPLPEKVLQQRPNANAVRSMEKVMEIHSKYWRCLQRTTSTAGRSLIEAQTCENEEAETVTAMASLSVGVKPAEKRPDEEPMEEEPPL

Histone deacetylase 5 = Histone deacetylase 5 (Homo sapiens, UniProt Q9UQL6); assay: Inhibition of human HDAC5 using fluorogenic HDAC substrate
Histone deacetylase 5, sequence (Q9UQL6 whole entry): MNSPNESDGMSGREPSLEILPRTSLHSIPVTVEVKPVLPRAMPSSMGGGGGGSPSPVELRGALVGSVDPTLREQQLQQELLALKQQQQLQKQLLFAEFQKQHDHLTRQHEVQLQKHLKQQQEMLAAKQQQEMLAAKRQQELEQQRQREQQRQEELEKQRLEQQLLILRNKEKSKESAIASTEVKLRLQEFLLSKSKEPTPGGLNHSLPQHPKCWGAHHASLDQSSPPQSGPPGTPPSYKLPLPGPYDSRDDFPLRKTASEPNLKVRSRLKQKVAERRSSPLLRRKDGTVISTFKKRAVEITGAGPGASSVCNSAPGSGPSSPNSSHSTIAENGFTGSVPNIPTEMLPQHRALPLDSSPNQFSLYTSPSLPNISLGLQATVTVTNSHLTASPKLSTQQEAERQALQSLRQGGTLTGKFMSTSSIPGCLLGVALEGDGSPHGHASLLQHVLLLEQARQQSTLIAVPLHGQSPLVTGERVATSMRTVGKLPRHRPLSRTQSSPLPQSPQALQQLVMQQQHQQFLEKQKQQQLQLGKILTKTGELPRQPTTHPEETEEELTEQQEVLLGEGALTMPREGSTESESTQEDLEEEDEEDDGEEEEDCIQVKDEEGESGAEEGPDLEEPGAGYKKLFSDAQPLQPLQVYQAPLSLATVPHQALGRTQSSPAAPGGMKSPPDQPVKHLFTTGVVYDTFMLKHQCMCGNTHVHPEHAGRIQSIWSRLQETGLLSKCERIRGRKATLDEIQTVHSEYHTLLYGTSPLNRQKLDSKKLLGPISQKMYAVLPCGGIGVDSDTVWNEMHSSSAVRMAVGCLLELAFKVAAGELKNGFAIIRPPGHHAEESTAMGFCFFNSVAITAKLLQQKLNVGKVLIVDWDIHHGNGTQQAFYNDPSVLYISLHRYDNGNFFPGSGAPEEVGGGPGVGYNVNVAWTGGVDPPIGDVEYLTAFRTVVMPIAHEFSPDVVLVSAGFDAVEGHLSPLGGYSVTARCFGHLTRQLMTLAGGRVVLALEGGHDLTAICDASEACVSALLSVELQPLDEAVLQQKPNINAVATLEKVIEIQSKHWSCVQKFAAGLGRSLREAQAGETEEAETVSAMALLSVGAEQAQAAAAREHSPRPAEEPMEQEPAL

[3] = molecular target: T3, Protein deacetylase HDAC6 (Homo sapiens, UniProt Q9UBN7); assay: Inhibition of human HDAC6 using fluorogenic HDAC substrate
T3 sequence (Q9UBN7 whole entry): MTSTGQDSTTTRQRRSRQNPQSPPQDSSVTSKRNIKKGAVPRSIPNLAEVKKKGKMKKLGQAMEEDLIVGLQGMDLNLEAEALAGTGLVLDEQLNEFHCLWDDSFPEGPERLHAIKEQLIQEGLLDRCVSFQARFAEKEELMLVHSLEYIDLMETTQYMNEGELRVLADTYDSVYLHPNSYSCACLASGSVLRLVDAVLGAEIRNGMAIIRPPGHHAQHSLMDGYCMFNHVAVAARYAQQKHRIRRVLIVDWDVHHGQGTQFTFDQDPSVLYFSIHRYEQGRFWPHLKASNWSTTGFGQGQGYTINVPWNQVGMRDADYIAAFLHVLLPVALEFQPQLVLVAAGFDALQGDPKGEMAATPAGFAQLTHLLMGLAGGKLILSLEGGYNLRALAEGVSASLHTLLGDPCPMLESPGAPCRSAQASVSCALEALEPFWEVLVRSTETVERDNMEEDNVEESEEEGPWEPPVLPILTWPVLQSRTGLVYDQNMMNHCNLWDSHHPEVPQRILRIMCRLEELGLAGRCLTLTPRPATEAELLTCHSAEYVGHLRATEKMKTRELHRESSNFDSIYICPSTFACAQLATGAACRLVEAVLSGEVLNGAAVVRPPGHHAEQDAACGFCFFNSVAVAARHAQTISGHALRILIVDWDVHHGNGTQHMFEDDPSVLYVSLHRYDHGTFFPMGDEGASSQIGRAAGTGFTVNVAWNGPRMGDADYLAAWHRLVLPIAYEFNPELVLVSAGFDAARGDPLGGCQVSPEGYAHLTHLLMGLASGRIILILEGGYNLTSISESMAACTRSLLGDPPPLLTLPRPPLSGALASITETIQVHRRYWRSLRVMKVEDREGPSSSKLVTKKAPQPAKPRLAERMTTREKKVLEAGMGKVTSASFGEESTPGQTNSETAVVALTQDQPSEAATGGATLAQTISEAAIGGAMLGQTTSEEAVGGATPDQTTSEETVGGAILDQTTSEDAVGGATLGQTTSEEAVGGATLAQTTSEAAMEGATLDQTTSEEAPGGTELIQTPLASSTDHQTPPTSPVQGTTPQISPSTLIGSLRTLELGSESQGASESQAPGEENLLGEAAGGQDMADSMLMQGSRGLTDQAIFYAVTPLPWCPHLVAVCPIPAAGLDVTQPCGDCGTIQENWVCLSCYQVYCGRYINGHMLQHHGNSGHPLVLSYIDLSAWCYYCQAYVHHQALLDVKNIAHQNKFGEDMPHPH

Histone deacetylase 8 = molecular target: T4, Histone deacetylase 8 (Homo sapiens, UniProt Q9BY41); assay: Inhibition of human HDAC8 using fluorogenic HDAC substrate
T4 sequence (Q9BY41 whole entry): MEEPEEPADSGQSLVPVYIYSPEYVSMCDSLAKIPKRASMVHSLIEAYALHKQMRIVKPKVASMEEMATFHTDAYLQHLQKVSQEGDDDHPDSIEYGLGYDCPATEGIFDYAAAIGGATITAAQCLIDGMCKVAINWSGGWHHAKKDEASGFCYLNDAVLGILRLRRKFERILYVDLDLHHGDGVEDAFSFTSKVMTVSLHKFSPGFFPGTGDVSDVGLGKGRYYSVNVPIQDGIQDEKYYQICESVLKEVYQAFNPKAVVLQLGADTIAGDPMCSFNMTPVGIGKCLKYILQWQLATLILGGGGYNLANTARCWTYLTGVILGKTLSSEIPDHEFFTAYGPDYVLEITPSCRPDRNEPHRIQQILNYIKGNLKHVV

Histone deacetylase 9 = Histone deacetylase 9 (Homo sapiens, UniProt Q9UKV0); assay: Inhibition of human HDAC9 using fluorogenic HDAC substrate
Histone deacetylase 9, sequence (Q9UKV0 whole entry): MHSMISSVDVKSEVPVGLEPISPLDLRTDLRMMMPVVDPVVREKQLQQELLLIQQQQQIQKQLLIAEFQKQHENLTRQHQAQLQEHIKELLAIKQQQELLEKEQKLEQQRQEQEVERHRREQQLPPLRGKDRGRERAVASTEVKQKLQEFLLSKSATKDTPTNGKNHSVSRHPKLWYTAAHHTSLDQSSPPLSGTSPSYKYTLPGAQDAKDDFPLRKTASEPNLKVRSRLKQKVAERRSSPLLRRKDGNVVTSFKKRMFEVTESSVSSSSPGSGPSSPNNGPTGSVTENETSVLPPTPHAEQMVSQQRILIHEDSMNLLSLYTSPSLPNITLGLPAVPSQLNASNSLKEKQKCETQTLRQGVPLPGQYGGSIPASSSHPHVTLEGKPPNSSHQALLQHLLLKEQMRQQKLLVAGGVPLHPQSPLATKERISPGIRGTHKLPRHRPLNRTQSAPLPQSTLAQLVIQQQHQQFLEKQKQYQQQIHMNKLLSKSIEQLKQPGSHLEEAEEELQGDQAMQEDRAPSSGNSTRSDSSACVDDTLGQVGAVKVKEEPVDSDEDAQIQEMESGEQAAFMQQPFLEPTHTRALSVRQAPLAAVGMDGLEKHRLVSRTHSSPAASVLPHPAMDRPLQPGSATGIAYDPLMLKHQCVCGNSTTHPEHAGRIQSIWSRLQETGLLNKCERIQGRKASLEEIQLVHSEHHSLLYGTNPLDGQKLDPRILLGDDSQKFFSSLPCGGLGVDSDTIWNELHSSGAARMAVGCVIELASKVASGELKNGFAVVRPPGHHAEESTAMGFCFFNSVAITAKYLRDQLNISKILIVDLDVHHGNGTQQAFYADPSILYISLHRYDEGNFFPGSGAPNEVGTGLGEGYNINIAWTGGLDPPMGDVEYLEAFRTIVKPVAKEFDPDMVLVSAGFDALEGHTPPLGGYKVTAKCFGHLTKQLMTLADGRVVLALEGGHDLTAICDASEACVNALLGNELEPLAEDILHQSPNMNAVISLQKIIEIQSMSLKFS

[4] = molecular target: T5, Polyamine deacetylase HDAC10 (Homo sapiens, UniProt Q969S8); assay: Inhibition of human HDAC10 using fluorogenic HDAC substrate
T5 sequence (Q969S8 whole entry): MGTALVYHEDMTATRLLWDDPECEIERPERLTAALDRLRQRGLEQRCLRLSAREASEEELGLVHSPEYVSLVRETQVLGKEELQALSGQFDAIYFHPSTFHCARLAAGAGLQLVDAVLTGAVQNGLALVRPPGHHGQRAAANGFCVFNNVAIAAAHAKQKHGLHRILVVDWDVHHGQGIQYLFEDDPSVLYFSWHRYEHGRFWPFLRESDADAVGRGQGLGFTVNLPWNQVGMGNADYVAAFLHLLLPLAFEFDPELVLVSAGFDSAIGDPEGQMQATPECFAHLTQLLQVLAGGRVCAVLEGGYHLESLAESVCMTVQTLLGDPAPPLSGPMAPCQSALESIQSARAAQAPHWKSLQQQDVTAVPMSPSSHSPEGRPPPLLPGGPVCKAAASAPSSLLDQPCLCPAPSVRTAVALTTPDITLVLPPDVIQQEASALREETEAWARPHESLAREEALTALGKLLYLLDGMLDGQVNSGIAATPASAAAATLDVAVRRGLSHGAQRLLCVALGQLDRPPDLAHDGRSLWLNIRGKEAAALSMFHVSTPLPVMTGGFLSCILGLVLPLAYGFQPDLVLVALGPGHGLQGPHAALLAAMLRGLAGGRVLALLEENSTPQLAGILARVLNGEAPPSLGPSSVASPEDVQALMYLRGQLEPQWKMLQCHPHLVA

Histone deacetylase 11 = molecular target: T6, Histone deacetylase 11 (Homo sapiens, UniProt Q96DB2); assay: Inhibition of human HDAC11 using fluorogenic HDAC substrate
T6 sequence (Q96DB2 whole entry): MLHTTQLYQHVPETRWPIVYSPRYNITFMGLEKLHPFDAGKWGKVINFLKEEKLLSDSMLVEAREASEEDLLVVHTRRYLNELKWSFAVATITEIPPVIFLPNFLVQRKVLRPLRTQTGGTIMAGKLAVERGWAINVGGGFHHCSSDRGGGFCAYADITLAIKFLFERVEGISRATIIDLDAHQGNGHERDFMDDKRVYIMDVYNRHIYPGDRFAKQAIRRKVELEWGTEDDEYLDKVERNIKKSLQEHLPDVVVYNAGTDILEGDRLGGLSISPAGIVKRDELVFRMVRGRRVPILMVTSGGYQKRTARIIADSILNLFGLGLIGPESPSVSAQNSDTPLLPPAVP

[5] = molecular target: Histone deacetylase (HDAC1 and HDAC2) (Homo sapiens, UniProt Q13547+Q92769); assay type: cell-based; details: hela
Histone deacetylase 3 [6] = molecular target: T2, Histone deacetylase 3; assay: Inhibition of HDAC3 (unknown origin)
[7] = molecular target: T3, Protein deacetylase HDAC6; assay: Inhibition of HDAC6 (unknown origin)
[8] = molecular target: T3, Protein deacetylase HDAC6; assay: Inhibition of recombinant full-length human HDAC6 expressed in baculovirus expression system using FAM-RHKK(Ac)-H2 as substrate measured by electrophoretic mobility shift assay
Histone deacetylase 1 [9] = molecular target: T1, Histone deacetylase 1; assay: Inhibition of HDAC1 (unknown origin) using Ac-peptide as substrate preincubated for 15 mins followed by substrate addition and measured after 60 mins by fluorescence assay
Histone deacetylase 1 [10] = molecular target: T1, Histone deacetylase 1; assay: Inhibition of GST-tagged HDAC1 (unknown origin) expressed in insect cells using poly (Glu, Tyr) 4:1 as substrate measured after 15 mins in presence of [gamma-33P]ATP by Topcount method
Zea mays = assay: Inhibition of maize HD2 at 5 uM using [3H]acetate-labelled histone as substrate by liquid scintillation counting method relative to control

T1 sequence (Q13547 whole entry): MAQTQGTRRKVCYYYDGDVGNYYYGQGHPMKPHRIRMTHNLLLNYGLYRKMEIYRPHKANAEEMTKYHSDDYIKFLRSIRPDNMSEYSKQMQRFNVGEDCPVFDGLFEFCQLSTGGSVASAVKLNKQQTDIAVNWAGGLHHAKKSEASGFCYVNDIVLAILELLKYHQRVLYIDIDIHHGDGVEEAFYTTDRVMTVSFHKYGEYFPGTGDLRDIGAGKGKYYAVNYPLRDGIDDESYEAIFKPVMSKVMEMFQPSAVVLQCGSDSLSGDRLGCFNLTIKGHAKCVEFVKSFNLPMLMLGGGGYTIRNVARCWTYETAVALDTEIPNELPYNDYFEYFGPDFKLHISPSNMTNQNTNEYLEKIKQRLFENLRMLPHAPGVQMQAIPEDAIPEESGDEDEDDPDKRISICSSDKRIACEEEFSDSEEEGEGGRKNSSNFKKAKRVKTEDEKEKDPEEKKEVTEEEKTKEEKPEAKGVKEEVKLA

Q: `O=C(NO)c1ccc(CN2c3ccccc3CCC[C@@H]3CCCC[C@H]32)cc1` was tested. Which IC50 (Histone deacetylase 1 [1]) did it give?
A: 8100 nM

Q: And the IC50 (Histone deacetylase 2)?
A: 24000 nM

Q: What about the IC50 (Histone deacetylase 3 [2]) of the same compound?
A: 24000 nM

Q: And the IC50 (Histone deacetylase 4)?
A: > 30000 nM

Q: And the IC50 (Histone deacetylase 5)?
A: 9100 nM

Q: And the IC50 [3]?
A: 8 nM

Q: And the IC50 (Histone deacetylase 8)?
A: 1100 nM

Q: And the IC50 (Histone deacetylase 9)?
A: 13000 nM

Q: What about the IC50 [4] of the same compound?
A: 10000 nM

Q: What about the IC50 (Histone deacetylase 11) of the same compound?
A: 2400 nM

Q: How did the IC50 [5] turn out when `COc1cc(/C=C/C(=O)NO)ccc1OCCN(C)C(=O)c1ccccc1O` was run?
A: 240 nM

Q: And the IC50 (Histone deacetylase 3 [6])?
A: 380 nM

Q: And the IC50 [7]?
A: 430 nM

Q: What does the source list for `O=C(NO)c1ccc(CN2c3cc(C(F)(F)F)ccc3CCC[C@@H]3CCCC[C@H]32)cc1`?
A: IC50 (Histone deacetylase 1 [1]): 8800 nM; IC50 (Histone deacetylase 2): 16000 nM; IC50 (Histone deacetylase 3 [2]): 18000 nM; IC50 (Histone deacetylase 5): 22000 nM; IC50 [3]: 11 nM; IC50 (Histone deacetylase 8): 2000 nM; IC50 (Histone deacetylase 9): > 30000 nM; IC50 [4]: 9400 nM; IC50 (Histone deacetylase 11): 820 nM

Q: For `O=C(NO)c1ccc2c(c1)CC1(CC2)CCN(Cc2ccccc2OC(F)(F)F)C1=O` (stereo not given), which IC50 [8] is on record?
A: 100 to 500 nM

Q: How did the IC50 (Histone deacetylase 1 [9]) turn out when `O=C(CCCCCCC(=O)Nc1ccccc1N1C(=O)CSC1c1cccc(Br)c1)NO` (stereo not given) was run?
A: 52 nM

Q: For `COc1ccccc1N1C(=O)CSC1c1cccc(NC(=O)CCCCCC(=O)NO)c1` (stereo not given), which IC50 (Histone deacetylase 1 [9]) is on record?
A: 17 nM

Q: For `CCc1n[nH]c(CC)c1CCN1CCCC1c1ccc(/C=C/C(=O)NO)cc1` (stereo not given), which IC50 (Histone deacetylase 1 [10]) is on record?
A: 0.8 nM

Q: Which IC50 (Histone deacetylase 1 [1]) does the source give for `O=C(NO)c1ccc(CN2c3ccccc3C3C2CCS3(=O)=O)cc1` (stereo not given) here?
A: 12000 nM

Q: What about the IC50 (Histone deacetylase 2) of the same compound?
A: > 30000 nM

Q: And the IC50 (Histone deacetylase 4)?
A: 600 nM

Q: And the IC50 (Histone deacetylase 5)?
A: 400 nM

Q: What about the IC50 [3] of the same compound?
A: 8.2 nM

Q: What about the IC50 (Histone deacetylase 8) of the same compound?
A: 1900 nM

Q: What about the IC50 (Histone deacetylase 9) of the same compound?
A: 200 nM

Q: And the IC50 [4]?
A: 13000 nM

Q: And the IC50 (Histone deacetylase 11)?
A: 17000 nM

Q: How did the IC50 (Histone deacetylase 1 [9]) turn out when `COc1ccccc1N1C(=O)CSC1c1cccc(C(=O)NCCCC(=O)NO)c1` (stereo not given) was run?
A: 4930 nM

Q: Which IC50 (Histone deacetylase 1 [10]) does the source give for `O=C(/C=C/c1ccc(C2CCCN2CCc2cnn3ccccc23)cc1)NO` (stereo not given) here?
A: 0.9 nM

Q: How did the IC50 (Histone deacetylase 1 [9]) turn out when `O=C(CCCOc1ccccc1N1C(=O)CSC1c1ccc(Br)s1)NO` (stereo not given) was run?
A: 73 nM

Q: With `O=C(NO)c1ccc(Cn2c3c(c4ccccc42)CS(=O)(=O)CC3)cc1` as the compound, how does the IC50 (Histone deacetylase 2) read?
A: 26000 nM

Q: And the IC50 (Histone deacetylase 3 [2])?
A: 29000 nM

Q: What about the IC50 (Histone deacetylase 5) of the same compound?
A: 500 nM

Q: And the IC50 (Histone deacetylase 9)?
A: 300 nM

Q: And the IC50 [4]?
A: 7700 nM

Q: For `Cn1cc(C(=O)c2ccccc2)cc1/C=C/C(=O)NO`, which inhibition (Zea mays) is on record?
A: 86%

Q: With `O=C(NO)c1ccc2c(c1)CC1(CC2)CCN(Cc2ccc(OC(F)(F)F)cc2)C1=O` (stereo not given) as the compound, how does the IC50 [8] read?
A: ≤ 100 nM

Q: Which IC50 (Histone deacetylase 1 [9]) does the source give for `COc1ccccc1N1C(=O)CSC1c1cccc(C(=O)NCCCCCC(=O)NO)c1` (stereo not given) here?
A: 37 nM

Q: Which IC50 (Histone deacetylase 1 [9]) does the source give for `O=C(CCCCCOc1ccccc1N1C(=O)CSC1c1cccc(Br)c1)NO` (stereo not given) here?
A: 260 nM

Q: `Cc1nn2ccccc2c1CCN1CCCC1c1ccc(/C=C/C(=O)NO)cc1` (stereo not given) was tested. Which IC50 (Histone deacetylase 1 [10]) did it give?
A: 0.6 nM

Q: Which IC50 (Histone deacetylase 1 [9]) does the source give for `O=C(CCCOc1ccccc1N1C(=O)CSC1c1cccc(Br)c1)NO` (stereo not given) here?
A: 1860 nM

Q: For `Cn1cc(C(=O)c2ccccc2)cc1/C=C/C(=O)NN`, which inhibition (Zea mays) is on record?
A: 0.2%
